Test system: E. coli 0128:B12 LPS
Experiment: Limulus test of ET spiked plasma, Example 4
Type: biochemical
Conditions: 0.009 w/v % of Px B alone; ET 2 ng/ml, 80° C. 5 minutes (FIG. 4)
Description: To 0.1 ml of the LAL solution was added 0.1 ml of the aforesaid diluted plasma, and stirred, after which a time required for reducing the transmittance of the resulting mixture by 5% (hereinafter abbreviated as "Tg") was measured while maintaining the temperature at 37° C. The ET concentration in the diluted plasma was determined on the basis of the thus obtained Tg value by use of a calibration curve showing the relationship between ET concentration and Tg which had been previously obtained by carrying out the same measurement as described above except for using ET solutions having various known concentrations in place of the samples.
To 1.3 ml of normal human heparinized plasma was added 13 μl of ET solution having a predetermined concentration, and 100 μl of the resulting ET spiked plasma was diluted 10 times with 900 μl of distilled water for injection, each of aqueous surfactant solutions having predetermined concentrations, each of aqueous Px B solutions having predetermined concentrations, or each of aqueous Px B solutions having predetermined concentrations and containing 0.1 w/v % or 0.2 w/v % of the surfactant (polyoxyethylene glycol p-t-octylphenyl ether), respectively. […] The ET concentration in the diluted plasma thus obtained was measured in the same manner as in Example 1.

Substance: polymyxin B [Px B]
- ET activity in plasma: completely inhibited

Source: patent US5616557A, “Process for selectively inhibiting activity of endotoxin” (Wako Pure Chemical Industries, Ltd., priority 1993, dated 1997)
